According to PubChem BioAssay AID2060882 (Molecular Pharmacology Branch, DTP, NCI, 2025):

Tested on: 898857-211-R-J1-PDC complex spheroids, growth % test/control
Assay: Anticancer human tumor 898857-211-R-J1-PDC patient-derived melanoma cell line growth inhibition [RAS]
Settings: for IC50: curve of first compound; for viability, T/C: stronger effect = lower value
Outline: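 Agents were tested in combination matrices in half-log decrements from a top concentration at or near clinical Cmax (10 microM if undetermined). Targets were multi-cell spheroids of tumour lines plus HUVEC and MSC stromal cells.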

[1] = second compound 0.000949 µM, first compound 0.00316 µM
[2] = second compound 0.000949 µM, first compound 0.01 µM
[3] = second compound 0.000949 µM, first compound 0.0316 µM
[4] = second compound 0.000949 µM, first compound 0.1 µM
[5] = second compound 0.000949 µM, first compound 0.316 µM
[6] = second compound 0.000949 µM, first compound 1 µM
[7] = second compound 0.003 µM, first compound 0.00316 µM
[8] = second compound 0.003 µM, first compound 0.01 µM
[9] = second compound 0.003 µM, first compound 0.0316 µM
[10] = second compound 0.003 µM, first compound 0.1 µM
[11] = second compound 0.003 µM, first compound 0.316 µM
[12] = second compound 0.003 µM, first compound 1 µM
[13] = second compound 0.00949 µM, first compound 0.00316 µM
[14] = second compound 0.00949 µM, first compound 0.01 µM
[15] = second compound 0.00949 µM, first compound 0.0316 µM
[16] = second compound 0.00949 µM, first compound 0.1 µM
[17] = second compound 0.00949 µM, first compound 0.316 µM
[18] = second compound 0.00949 µM, first compound 1 µM
[19] = second compound 0.03 µM, first compound 0.00316 µM
[20] = second compound 0.03 µM, first compound 0.01 µM
[21] = second compound 0.03 µM, first compound 0.0316 µM
[22] = second compound 0.03 µM, first compound 0.1 µM
[23] = second compound 0.03 µM, first compound 0.316 µM
[24] = second compound 0.03 µM, first compound 1 µM
[25] = second compound 0.0949 µM, first compound 0.00316 µM
[26] = second compound 0.0949 µM, first compound 0.01 µM
[27] = second compound 0.0949 µM, first compound 0.0316 µM
[28] = second compound 0.0949 µM, first compound 0.1 µM
[29] = second compound 0.0949 µM, first compound 0.316 µM
[30] = second compound 0.0949 µM, first compound 1 µM
[31] = second compound 0.3 µM, first compound 0.00316 µM
[32] = second compound 0.3 µM, first compound 0.01 µM
[33] = second compound 0.3 µM, first compound 0.0316 µM
[34] = second compound 0.3 µM, first compound 0.1 µM
[35] = second compound 0.3 µM, first compound 0.316 µM
[36] = second compound 0.3 µM, first compound 1 µM
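Note: spheroids exposed to compound for seven days before readout.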
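Throughout, for viability, T/C: 100% = DMSO vehicle control wells.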

Compound `CC1(C)CCC(Nc2ncc(C(F)(F)F)c(-c3c[nH]c4c(P(C)(C)=O)c(C#N)ccc34)n2)CN1` (stereo unspecified) + C=CC(=O)N1CCN(c2nc(OCC3CCCN3C)nc3c(F)c(-c4nc(N)cc(C)c4C(F)(F)F)c(Cl)cc23)C(C)C1 has an IC50 (second compound 0.00316 µM) of 5.36 nM, an IC50 (second compound 0.01 µM) of 5.18 nM and an IC50 (second compound 0.0316 µM) of 4.69 nM. For the same compound, the IC50 (second compound 0.1 µM) was 5.81 nM, the IC50 (second compound 0.316 µM) was 5.77 nM and the IC50 (second compound 1 µM) was 4.52 nM. The viability, T/C (second compound 0.00316 µM, first compound 0.000949 µM) was 96.9%, the viability, T/C (second compound 0.00316 µM, first compound 0.003 µM) was 67.8% and the viability, T/C (second compound 0.00316 µM, first compound 0.00949 µM) was 32.1%. For the same compound, the viability, T/C (second compound 0.00316 µM, first compound 0.03 µM) was 20.6%, the viability, T/C (second compound 0.00316 µM, first compound 0.0949 µM) was 16.4% and the viability, T/C (second compound 0.00316 µM, first compound 0.3 µM) was 14.5%. It also gave a viability, T/C (second compound 0.01 µM, first compound 0.000949 µM) of 96.9%, a viability, T/C (second compound 0.01 µM, first compound 0.003 µM) of 66.3% and a viability, T/C (second compound 0.01 µM, first compound 0.00949 µM) of 32.1%. For the same compound, the viability, T/C (second compound 0.01 µM, first compound 0.03 µM) was 19.5%, the viability, T/C (second compound 0.01 µM, first compound 0.0949 µM) was 18.5% and the viability, T/C (second compound 0.01 µM, first compound 0.3 µM) was 17.8%. For the same compound, the viability, T/C (second compound 0.0316 µM, first compound 0.000949 µM) was 91.3%, the viability, T/C (second compound 0.0316 µM, first compound 0.003 µM) was 61.3% and the viability, T/C (second compound 0.0316 µM, first compound 0.00949 µM) was 32%. The viability, T/C (second compound 0.0316 µM, first compound 0.03 µM) was 22%, the viability, T/C (second compound 0.0316 µM, first compound 0.0949 µM) was 17.4% and the viability, T/C (second compound 0.0316 µM, first compound 0.3 µM) was 17.1%. For the same compound, the viability, T/C (second compound 0.1 µM, first compound 0.000949 µM) was 91.8%, the viability, T/C (second compound 0.1 µM, first compound 0.003 µM) was 74.7% and the viability, T/C (second compound 0.1 µM, first compound 0.00949 µM) was 32%. For the same compound, the viability, T/C (second compound 0.1 µM, first compound 0.03 µM) was 14.9%, the viability, T/C (second compound 0.1 µM, first compound 0.0949 µM) was 17.6% and the viability, T/C (second compound 0.1 µM, first compound 0.3 µM) was 15.8%. It also gave a viability, T/C (second compound 0.316 µM, first compound 0.000949 µM) of 101%, a viability, T/C (second compound 0.316 µM, first compound 0.003 µM) of 70.5% and a viability, T/C (second compound 0.316 µM, first compound 0.00949 µM) of 33.8%. The viability, T/C (second compound 0.316 µM, first compound 0.03 µM) was 21.8%, the viability, T/C (second compound 0.316 µM, first compound 0.0949 µM) was 17.8% and the viability, T/C (second compound 0.316 µM, first compound 0.3 µM) was 15%. It also gave a viability, T/C (second compound 1 µM, first compound 0.000949 µM) of 98.9%, a viability, T/C (second compound 1 µM, first compound 0.003 µM) of 61.3% and a viability, T/C (second compound 1 µM, first compound 0.00949 µM) of 29.3%. The viability, T/C (second compound 1 µM, first compound 0.03 µM) was 18.3%, the viability, T/C (second compound 1 µM, first compound 0.0949 µM) was 15% and the viability, T/C (second compound 1 µM, first compound 0.3 µM) was 12.2%.

Compound `C=CC(=O)Nc1cc(Nc2nccc(-c3cn(C)c4ccccc34)n2)c(OC)cc1N(C)CCN(C)C` + CCn1c(-c2cc(N3CCN(C)CC3)cnc2C(C)OC)c2c3cc(ccc31)-c1csc(n1)CC(NC(=O)C1CC1C)C(=O)N1CCCC(N1)C(=O)OCC(C)(C)C2 has an IC50 (second compound 0.000949 µM) of 832 nM, an IC50 (second compound 0.003 µM) of 380 nM and an IC50 (second compound 0.00949 µM) of 538 nM. It also gave an IC50 (second compound 0.03 µM) of 561 nM, an IC50 (second compound 0.0949 µM) of 591 nM and an IC50 (second compound 0.3 µM) of 603 nM. The viability, T/C [1] was 101%, the viability, T/C [2] was 101% and the viability, T/C [3] was 106%. The viability, T/C [4] was 102%, the viability, T/C [5] was 73.7% and the viability, T/C [6] was 45.5%. It also gave a viability, T/C [7] of 99%, a viability, T/C [8] of 113% and a viability, T/C [9] of 97%. It also gave a viability, T/C [10] of 88.9%, a viability, T/C [11] of 52.4% and a viability, T/C [12] of 34.9%. It also gave a viability, T/C [13] of 105%, a viability, T/C [14] of 112% and a viability, T/C [15] of 114%. For the same compound, the viability, T/C [16] was 88.9%, the viability, T/C [17] was 65.5% and the viability, T/C [18] was 33.7%. The viability, T/C [19] was 102%, the viability, T/C [20] was 96.2% and the viability, T/C [21] was 110%. The viability, T/C [22] was 91.3%, the viability, T/C [23] was 64.7% and the viability, T/C [24] was 35.6%. It also gave a viability, T/C [25] of 106%, a viability, T/C [26] of 104% and a viability, T/C [27] of 101%. It also gave a viability, T/C [28] of 96%, a viability, T/C [29] of 60.5% and a viability, T/C [30] of 41.1%. It also gave a viability, T/C [31] of 125%, a viability, T/C [32] of 114% and a viability, T/C [33] of 102%. It also gave a viability, T/C [34] of 97%, a viability, T/C [35] of 64.7% and a viability, T/C [36] of 36.2%.

`O=C(c1ccc(F)c(F)c1Nc1ccc(I)cc1F)N1CC(O)([C@@H]2CCCCN2)C1` + CCn1c(-c2cc(N3CCN(C)CC3)cnc2C(C)OC)c2c3cc(ccc31)-c1csc(n1)CC(NC(=O)C1CC1C)C(=O)N1CCCC(N1)C(=O)OCC(C)(C)C2 gave an IC50 (second compound 0.000949 µM) of under 3.16 nM, an IC50 (second compound 0.003 µM) of under 3.16 nM and an IC50 (second compound 0.00949 µM) of under 3.16 nM. It also gave an IC50 (second compound 0.03 µM) of under 3.16 nM, an IC50 (second compound 0.0949 µM) of under 3.16 nM and an IC50 (second compound 0.3 µM) of under 3.16 nM. The viability, T/C [1] was 39.8%, the viability, T/C [2] was 24.2% and the viability, T/C [3] was 16.8%. For the same compound, the viability, T/C [4] was 13.9%, the viability, T/C [5] was 13% and the viability, T/C [6] was 9.63%. It also gave a viability, T/C [7] of 33.1%, a viability, T/C [8] of 21.3% and a viability, T/C [9] of 17.5%. It also gave a viability, T/C [10] of 12.4%, a viability, T/C [11] of 10.3% and a viability, T/C [12] of 6.63%. The viability, T/C [13] was 32%, the viability, T/C [14] was 20.5% and the viability, T/C [15] was 17.8%. It also gave a viability, T/C [16] of 14.2%, a viability, T/C [17] of 11.3% and a viability, T/C [18] of 3.23%. For the same compound, the viability, T/C [19] was 24.2%, the viability, T/C [20] was 20.7% and the viability, T/C [21] was 17.8%. It also gave a viability, T/C [22] of 12.8%, a viability, T/C [23] of 7.8% and a viability, T/C [24] of 2.22%. For the same compound, the viability, T/C [25] was 24.6%, the viability, T/C [26] was 20.2% and the viability, T/C [27] was 14.7%. The viability, T/C [28] was 10.4%, the viability, T/C [29] was 3.52% and the viability, T/C [30] was 1.46%. The viability, T/C [31] was 24.1%, the viability, T/C [32] was 19.1% and the viability, T/C [33] was 13.3%. For the same compound, the viability, T/C [34] was 8.51%, the viability, T/C [35] was 3.03% and the viability, T/C [36] was 1.17%.
